Measurements: patent US20260327211A1, “MODULATORS OF A POTASSIUM CHANNEL AND OF TRPV1 CHANNEL AND USES THEREOF” (Bsense Bio Therapeutics Ltd., priority 2023, published 2026)
Where “and” joins values, the source holds several entries; their conditions need not be identical. Equal entries are not always repeated. Where two headings read alike, the source gives them in different places.

Assays:
CHO-K1 cells = test: In vitro micronucleus; assay type: cell-based
Protocol: (§1) The micronucleus assay was performed according to the regulatory guidelines. In brief, CHO-K1 cells were plated at 10000 cells/well in 3 plates and incubated In CHO-K1 growth medium (containing F12K, 10% FBS and 1% PS) overnight.
(§2) As a control for the S9 treatment, plate No. 1, cells were treated with cyclophosphamide as a positive control, for 3 hours. For plate No. 2, without S9 treatment, cells were treated with mitomycin C as a positive control, compounds for 3 hours, and for plate No. 3, without S9 treatment, cells were treated with bleomycin sulfate as a positive control continuously for 24 hours.
(§3) On the following day, 6 μg/mL of cytochalasin B were added to each well and plates were further incubated overnight. In the day after medium was replaced with a combined 10 μg/mL Hoechst dye solution and 0.5 μM calcein-AM in 100 μL warm DPBS for 30 minutes and the plates were scanned using CQ1 high-content analysis system.

In vitro micronucleus = assay type: cell-based; conditions: hamster, cho-k1 cells
Protocol: as §1, §2, §3

[1] = test system: Spared Nerve Injury (SNI) rats; test: Spared Nerve Injury (SNI) model, von Frey; assay type: in vivo, rat; conditions: rat, in vivo
Protocol: All animal experiments were carried out according to the Guide for the Care and Use of Laboratory Animals (2011 edition) and approved by the Israel National Institutional Animal Care and Use Committee (IACUC). Young adult male SD rats (Envigo RMS, Israel), were used for in vivo efficacy: Spared Nerve Injury (SNI), Distal Tibial Injury (DTI) and Post-operative Pain (POP), 200-220 grams, Chronic Post-Ischemia Pain (CPIP) 275-325 grams, Monosodium iodoacetate-induced osteoarthritis (MIA-OA) 180-220 grams; for in vivo safety: 200-250 grams at study initiation. […] The health status of the animals used in this study was examined upon their arrival. Only animals in good health were acclimatized to laboratory conditions and were used in the studies. All studies were performed following at least five days of animal acclimation. During acclimation and throughout the entire study duration, animals were housed within a limited-access rodent facility and kept in groups with a maximum of 2-3 rats per polypropylene cage. The cages were fitted with solid bottoms and filled with sterile wood shavings as bedding material. Animals were provided ad libitum with a commercial, sterile rodent diet and had free access to drinking water that was supplied to each cage via polyethylene bottles with stainless steel sipper tubes. A feed lot analysis of the diet batch used in the study was included in the archives with the study data. Water was monitored periodically. Plastic cylinders for playing and hiding and wooden balls or sticks were added to the cages for environmental enrichment.
SNI: The SNI procedure consisted of ligating and dissecting the tibial and common peroneal nerves, thus sparing the sural nerve. Prior to surgery, a dose of 0.03 mg/kg buprenorphine (Temgesic®) was administered to animals as a prophylaxis to alleviate the operative and postoperative pain unrelated to neuropathy. Next, animals were anesthetized with a combination of medetomidine/ketamine sodium IP. While under anesthesia a medio caudal incision of 4-5 mm parallel to the left femur was cut on shaved and disinfected skin. The sciatic nerve was exposed from underneath the muscle layer and isolated gently from the surrounding connective tissue, using curved and blunt forceps. The tibial and common peroneal nerves were first tightly ligated with double knot of 6-0 silk suture, proximally and immediately distal to the sciatic bifurcation. Thereafter, the nerves which run as a pair as physically attached to each other were cut at sites close to the ligatures, thereby removing a length of approximately 0.5 mm of the nerves, necessary to avoid the formation of any re-connection to the nerves. This procedure led to complete denervation of areas of tibial and peroneal innervation in the plantar paw, while neuropathy was developed upon the sural territories. Special care was taken not to manipulate the sural nerve, which thus was left intact. The muscle layers and skin were sutured, and animals were allowed to recover. 0.03 mg/kg buprenorphine SC was administered on postoperative days 1-2, every 12 hours, starting from the evening of Day 0. Rehydration with 4 ml of sterile saline IP was provided directly after the surgery, continuing twice a day for 7 days. The sural nerve innervates the lateral longitudinal third of the plantar paw and therefore, mechanical sensitivity was assessed in this area.
The selection of animals was performed on day 13 post-operation before animals were placed in their experimental groups. Animals with a pain threshold of <4 grams for an operated leg following Von Frey testing were included in the study. To form homogenous treatment groups, all the selected animals were grouped using a random sampling method on study day 13, to form groups with similar pain threshold mean. For blinding purposes, the researcher who dosed the animals with test items was different than the researcher who conducted the VF tests. […]

MIA-OA rats = test: Dynamic weight bearing in MIA-OA rats; assay type: in vivo, rat; conditions: 100 mg/kg (naproxen 30 mg/kg), 6 hours post-dose
Protocol: Monosodium iodoacetate-induced osteoarthritis (MIA-OA): The animals were anaesthetized using an Isoflurane+O2 mixture. Then 50 μl of MIA at a concentration of 60 mg/mL was injected into the right knee joint using a 30 G needle. On study days 13 and 14 following MIA injection, the animals' dynamic weight bearing and response to von Frey filaments were measured.
Dynamic Weight Bearing (DWB): DWB study was performed using the DWB2 apparatus (Bioseb, Paris, France). The rats were placed in a transparent cage containing a matrix comprising around 2000 high-precision force sensors embedded in its floor where they were allowed to move freely. The force sensors measured the weight distribution on each of the four paws of the animal in grams. The animal was filmed from above using a high-definition camera, and the video feed was analyzed in real-time during the test using tracking software, allowing a precise analysis of the animal's posture and hind paws identification. Out of 5 minutes of animal behavior recording, a segment of 2 minutes was analyzed. Once the analysis was completed, the software provided the weight distribution of each hind paw as the main readout and the ratio between the injured and intact hind paws was then calculated.

hTRPV1 = molecular target: T1, hTRPV1 (Homo sapiens, UniProt Q8NER1); test: hTRPV1 dual activity electrophysiology, CHO cells co-expressing hKv7.2/3 and hTRPV1; assay type: cell-based; conditions: Dual hTRPV1 / Dual Expressing CHO, CAP IC50, Kv7.2/3 co-expressed and activated, capsaicin
T1 construct: CDS of NM_080704.4, inserted into the multiple cloning site of pcDNA3.1(+); host or cells: CHO/hKv7.2/3
T1 sequence (Q8NER1 whole entry): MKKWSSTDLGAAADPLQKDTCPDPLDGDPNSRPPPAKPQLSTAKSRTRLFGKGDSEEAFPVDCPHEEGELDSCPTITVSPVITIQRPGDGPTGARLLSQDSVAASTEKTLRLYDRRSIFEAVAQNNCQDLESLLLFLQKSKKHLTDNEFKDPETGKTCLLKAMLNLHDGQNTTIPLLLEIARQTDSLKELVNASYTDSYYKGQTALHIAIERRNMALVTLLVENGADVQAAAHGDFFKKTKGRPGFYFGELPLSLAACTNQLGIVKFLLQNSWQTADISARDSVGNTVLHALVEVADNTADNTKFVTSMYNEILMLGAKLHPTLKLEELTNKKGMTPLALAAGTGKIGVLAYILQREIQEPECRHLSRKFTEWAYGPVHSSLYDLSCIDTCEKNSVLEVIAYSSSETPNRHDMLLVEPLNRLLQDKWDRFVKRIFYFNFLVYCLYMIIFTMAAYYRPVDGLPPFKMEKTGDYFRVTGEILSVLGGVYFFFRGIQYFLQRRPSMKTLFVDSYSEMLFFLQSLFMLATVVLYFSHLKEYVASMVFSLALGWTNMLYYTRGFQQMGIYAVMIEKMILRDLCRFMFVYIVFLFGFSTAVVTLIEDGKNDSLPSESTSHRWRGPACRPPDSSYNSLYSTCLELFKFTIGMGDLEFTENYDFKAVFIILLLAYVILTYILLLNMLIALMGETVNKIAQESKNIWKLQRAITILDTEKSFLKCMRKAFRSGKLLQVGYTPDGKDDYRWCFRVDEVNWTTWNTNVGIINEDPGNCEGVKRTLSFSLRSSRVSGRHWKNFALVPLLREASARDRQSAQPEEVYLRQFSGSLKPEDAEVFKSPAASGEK
Protocol: Cell culture and DNA transfection: CHO/hKv7.2/3 cells were transfected with hTRPV1 DNA constructs (CDS of NM_080704.4, inserted into the multiple cloning site of pcDNA3.1(+) between the Hind III and BamH I restriction site, Genscript). For CHO transfection, 1×10^6 cells were suspended in a reaction mix (Amaxa™ 4D-Nucleofector™-LONZA) containing 5 μg of hTRPV1 DNA and 0.5 μg of GFP DNA (for cells selection) in a cuvette.
The cells were transformed (Amaxa, DT-133 program for CHO transfection with p-3 Kit) and recovered for 10 minutes at RT in the hood. Then cells were re-suspended in a 10 mL antibiotic (Ab)-free medium suspension and were plated on Gelatin or PLL-coated cover glass in different cell densities. On the next morning, the medium was changed to full medium containing the CHO/hKv7.2/3 cell line selection antibiotics.
Extracellular (Bath) solution: The solution was composed of (in mM): NaCl, 140; KCl, 4; CaCl2, 1.8; MgCl2, 1.2; Glucose, 11; HEPES, 5.5. pH was adjusted to 7.3 with NaOH. Osmolarity was adjusted to 310 mOsm with Sucrose.
Intracellular (Pipette) solution: Pipettes were pulled from borosilicate glass (Warner Instrument Corp, USA) with a resistance of 3-7 MΩ and were filled with internal solution composed of (in mM): KCl, 130; MgCl2, 1; K ATP, 5; EGTA, 5; HEPES, 10. pH was adjusted to 7.3 with KOH. Osmolarity was adjusted to 290 mOsm with Sucrose.
A programmable valve-linked pressurized perfusion system was used for local application of compounds nearby the cell recorded in a consistent flow rate of 2-3 mL/minute. Series resistance was corrected and data were sampled at 5 kHz and low pass filtered at 2.4 kHz using MultiClamp 700B amplifier with pCLAMP11 software (Molecular Devices, USA).
At least 48 hours following cell transfection and plating, cells were recorded to assess the TRPV1 dual activity. Membrane potential was held at −90 mV. To measure the inhibitory effects of the tested compounds on hTRPV1 dual activity the following protocol was performed:
Cells were perfused with vehicle-only containing bath solution. After 30 seconds, a single −40 mV 1.5 second step was applied for Kv7.2/3 activation and 30 seconds later capsaicin (1 μM) was applied for 6 seconds to activate the TRPV1.
Cells perfusion was changed to a compound-containing bath solution, and after 2 minutes and 30 seconds of compound application, a single −40 mV 1.5 second step was applied for Kv7.2/3 activation and 30 seconds later capsaicin (1 μM) was applied for 6 seconds to activate the TRPV1.
Cells perfusion was thereafter changed back to vehicle only-containing bath solution. After 30 seconds, a single −40 mV 1.5 step was applied for Kv7.2/3 activation and 30 seconds later capsaicin (1 μM) was applied for 6 seconds to activate the TRPV1 followed by a capsaicin wash out.
The drug current response, when capsaicin was injected following 3 minutes of pre-incubation with the test compound, was divided by the averaged control currents, induced without compound, before compound incubation and following its washout, to evaluate the drug/control response.

[2] = Log D, 1-octanol/buffer shake flask; assay type: physicochemical; conditions: 1-octanol/phosphate buffer, pH 7.4; read-out: LogD
Method in brief: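 Compound from a 10 mM DMSO stock was partitioned between mutually saturated 1-octanol and 0.1 M phosphate buffer by shaking for 1 h at room temperature, then centrifuged. Each phase was diluted and quantified by LC/MS/MS. Log D came from the ratio of dilution- and internal-standard-corrected peak areas.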

[3] = Human liver microsome metabolic stability; assay type: in vitro ADME; conditions: for half-life at 1 µM: human, liver microsomes, human liver microsomes, read-out: HLM T1/2
Method in brief: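 Compound at 1 μM was incubated at 37 °C with pooled liver microsomes at 0.5 mg/mL and an NADPH regenerating system (about 1.0 mM). Samples were taken from 0 to 60 min, quenched in cold acetonitrile and quantified by LC-MS/MS against an internal standard. CLint was scaled with species liver weights (rat 40 g/kg, human 20 g/kg).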

[4] = Bidirectional permeability in Caco-2 cells; assay type: in vitro ADME, human; conditions: human, Caco-2, pH 7.4, 2.00 μM
Protocol: Cell culture: Caco-2 cells (ATCC) were seeded onto polycarbonate (PC) membranes in 96-well insert plates. The cells were cultured in media for 21-28 days prior to performing the transport assays.
Validation of monolayer integrity: Once the Caco-2 cells formed a confluent monolayer, their integrity was evaluated using a Lucifer yellow rejection assay. The monolayer integrity was further evaluated by measuring, in duplicate wells, the unidirectional (A→B) permeability of nadolol (a low permeability marker) and metoprolol (a high permeability marker), as well as bidirectional permeability of digoxin (a P-glycoprotein substrate marker).
Assay: The compounds were assayed under bidirectional transport conditions (A→B and B→A) at a concentration of 2.00 μM (with DMSO≤1.0%), using a transport buffer composed of HBSS containing 10.0 mM HEPES, pH 7.40±0.05. The incubation was carried out at 37° C., with 5.0% CO2 and relatively saturated humidity for 2 hours.
The dosing solution was spiked and mixed with the transport buffer and a Stop Solution (containing an internal standard (IS)) to create a T0 sample.
Sample analysis: Following the incubation, all of the samples were analyzed using LC-MS/MS. The concentrations of the test compounds were expressed as peak area ratios of the analytes versus the IS.

[5] = Metabolite identification (Met-ID), human hepatocytes; assay type: in vitro ADME; conditions: human hepatocytes
Protocol: Cell culture and incubation: Cryopreserved hepatocyte cells, from human and rat sources, were purchased from commercial sources or in-house production, and were cultured in Williams' Medium E supplemented with glutamine and HEPES, in a humidified 5% CO2 incubator at 37° C., to a cell density of […]. Then, solutions of test compounds at a concentration of 10 μM, or 7-Ethoxycoumarin, as a positive control, at a concentration of 30 μM, in Eagle's Minimum Essential Medium, Catalog No. 30-2003 (ATCC) supplemented with 20% fetal bovine serum, were introduced and the mixture was incubated for 120 minutes, or other specified time points.
The samples were analyzed for metabolites using an LC-MS method developed on […] and PDA systems. Comparative analyses of mass spectra and ion fragmentation between the parent compound and its metabolites were carried out, and metabolic profiling was determined using the mass spectrometric and/or PDA (UV) response. Hypothetical structures of metabolites and their metabolic pathways were proposed.

| Structure (SMILES) | logD [2] | HLM and/or Rat PK clearance rates compared to compound 661 [3] | half-life at 1 µM [3] [min] | efflux ratio at 2 h, 2 µM [4] | Human Hepatocytes MetID (glutathione conjugation) [5] | also measured |
| --- | --- | --- | --- | --- | --- | --- |
| CO[C@@]12[C@H](COC(N)=O)C3=C(C(=O)C(C)=C(N)C3=O)N1C[C@@H]1N[C@@H]12 [Mitomycin C, reference compound] |  |  |  |  |  | Micronucleus response Absolute MEC (CHO-K1 cells; Plate 2 without S9, 3 hours): >16 µM; CC50 at 3 h (In vitro micronucleus; Plate 2 without S9, 3 hours, read-out: Cytotoxicity (%) Absolute EC50): > 16 µM |
| CC(C)C[C@H](CN)CC(=O)O [Pregabalin, reference compound] |  |  |  |  |  | Reversal of PWT [1]: 61% and 50% |
| COc1ccc2cc([C@H](C)C(=O)O)ccc2c1 [naproxen, reference compound] |  |  |  |  |  | Reversal of weight bearing changes (MIA-OA rats): comparable reversal of weight bearing changes |
| O=C(Cc1cc(-n2cc(Cl)c3cc(Cl)cc(Cl)c32)ncn1)N[C@@H]1COC[C@H]1O [Compound 840] | 3.63 | improved HLM and/or Rat PK clearance rates compared to compound 661 | 52 | 5.4 | did not indicate the presence of glutathione conjugation and None | IC50 (hTRPV1): 0.479 µM |
| O=P1(N(CCCl)CCCl)NCCCO1 (centres unmarked) [Cyclophosphamide, reference compound] |  |  |  |  |  | Micronucleus response Absolute MEC (CHO-K1 cells; hamster): >400 µM; CC50 at 3 h (In vitro micronucleus): 41.4 µM |
| O=C(Cc1cc(-n2cc(Cl)c3cc(Cl)cc(Cl)c32)cnn1)N[C@@H]1COC[C@H]1O [Compound 830] | 3.2 | improved HLM and/or Rat PK clearance rates compared to compound 661 | 58.1 | 84 | did not indicate the presence of glutathione conjugation |  |
